Reference: the supplement of paper PMC13380429

Experiments:
Conditions in all cases: 72 h
[1] = system: Caco-2; assay: cell viability relative to DMSO; higher = less toxic
[2] = system: Calu-3; assay: as above
[3] = system: HepG2; assay: as above
[4] = system: U2OS; assay: as above
[5] = system: Vero E6; assay: as above
[6] = system: Caco-2; assay: relative viability EC50 (midpoint between 100% and the lowest measured viability); higher = less toxic
[7] = system: Calu-3; assay: as above
[8] = system: HepG2; assay: as above
[9] = system: U2OS; assay: as above
[10] = system: Vero E6; assay: as above
[11] = system: Caco-2; assay: drug sensitivity score (DSS) for viability; higher = more toxic; extreme values may be limits of the assay
[12] = system: Calu-3; assay: as above
[13] = system: HepG2; assay: as above
[14] = system: U2OS; assay: as above
[15] = system: Vero E6; assay: as above

Compound | cell viability ([1]; 1 nM) [%] | cell viability ([1]; 10 nM) [%] | cell viability ([1]; 100 nM) [%] | cell viability ([1]; 1000 nM) [%] | cell viability ([1]; 10000 nM) [%] | cell viability ([2]; 1 nM) [%] | cell viability ([2]; 10 nM) [%] | cell viability ([2]; 100 nM) [%] | cell viability ([2]; 1000 nM) [%] | cell viability ([2]; 10000 nM) [%] | cell viability ([3]; 1 nM) [%] | cell viability ([3]; 10 nM) [%] | cell viability ([3]; 100 nM) [%] | cell viability ([3]; 1000 nM) [%] | cell viability ([3]; 10000 nM) [%] | cell viability ([4]; 1 nM) [%] | cell viability ([4]; 10 nM) [%] | cell viability ([4]; 100 nM) [%] | cell viability ([4]; 1000 nM) [%] | cell viability ([4]; 10000 nM) [%] | cell viability ([5]; 1 nM) [%] | cell viability ([5]; 10 nM) [%] | cell viability ([5]; 100 nM) [%] | cell viability ([5]; 1000 nM) [%] | cell viability ([5]; 10000 nM) [%] | relative viability EC50 [6] [µM] | relative viability EC50 [7] [µM] | relative viability EC50 [8] [µM] | relative viability EC50 [9] [µM] | relative viability EC50 [10] [µM] | drug sensitivity score [11] | drug sensitivity score [12] | drug sensitivity score [13] | drug sensitivity score [14] | drug sensitivity score [15]
O=[N+]([O-])c1cn2c(n1)OC[C@@H](OCc1ccc(-c3ccc(OC(F)(F)F)cc3)nc1)C2 [TBA-354] | 99.5 | 95.4 | 103 | 92.1 | 92.9 | 101 | 103 | 106 | 96.1 | 98.5 | 92.9 | 108 | 89.4 | 110 | 105 | 98.3 | 98.8 | 102 | 100 | 98.8 | 96.7 | 101 | 93.6 | 99 | 104 | > 10 | > 10 | > 10 | > 10 | > 10 | 0 | 0 | 0 | 0 | 0
COc1cc(OC)cc(C(=O)NNC(=O)Nc2cccc3ccccc23)c1 [TC-O-9311] | 96.3 | 112 | 101 | 102 | 88 | 84.2 | 92.1 | 93.6 | 97.8 | 107 | 100 | 101 | 92.3 | 90.9 | 98.7 | 99 | 100 | 98.3 | 101 | 98.4 | 102 | 102 | 94.9 | 94.1 | 96 | > 10 | > 10 | > 10 | > 10 | > 10 | 0 | 0 | 0 | 0 | 0
CC(C)C(=O)SCCCCC[C@H](NC(=O)OC(C)(C)C)C(=O)NC12CC3CC(CC(C3)C1)C2 [TCS-HDAC6-20b] | 97.7 | 96.9 | 95.5 | 102 | 103 | 101 | 93.3 | 95.6 | 108 | 85.3 | 101 | 99.3 | 101 | 96.5 | 105 | 101 | 102 | 106 | 98.4 | 98.4 | 96.5 | 96.2 | 97 | 98.9 | 113 | > 10 | > 10 | > 10 | > 10 | > 10 | 0 | 0.1 | 0 | 0 | 0
CCN1/C(=C/C(C)=O)Sc2ccc(OC)cc21 [TG-003] | 98.9 | 92.9 | 96.6 | 99.2 | 95.4 | 99.2 | 105 | 106 | 96.8 | 102 | 98 | 96.9 | 93 | 93.2 | 87.2 | 106 | 98.7 | 96.9 | 104 | 102 | 98.9 | 98.6 | 99.1 | 93.5 | 93.7 | > 10 | > 10 | > 10 | > 10 | > 10 | 0 | 0 | 0.1 | 0 | 0
CC(C)[C@](O)(c1ccc2cc(OC(F)F)c(OC(F)F)cc2c1)c1c[nH]nn1 [VT-464] | 93.3 | 103 | 105 | 95.1 | 88.3 | 104 | 101 | 93.2 | 93 | 96.5 | 101 | 104 | 98.1 | 109 | 90.8 | 96.3 | 101 | 99.2 | 102 | 93 | 98.8 | 103 | 99.3 | 98.2 | 94.5 | > 10 | > 10 | > 10 | > 10 | > 10 | 0.2 | 0 | 0 | 0 | 0
CCC(=O)OCC(=O)[C@@]1(OC(=O)CC)[C@H](C)C[C@H]2[C@H]3[C@H]([C@@H](O)C[C@@]21C)[C@@]1(C)C=CC(=O)C=C1C[C@H]3Cl [alclometasone-dipropionate] | 97.3 | 101 | 99.7 | 94.7 | 96.8 | 96 | 88.1 | 90.2 | 95.6 | 97.6 | 103 | 101 | 112 | 90.4 | 91.1 | 97.2 | 97 | 91.7 | 96.6 | 90.8 | 108 | 101 | 104 | 98 | 106 | > 10 | > 10 | > 10 | > 10 | > 10 | 0 | 0 | 0 | 0 | 0
CNC(=O)[C@@H](c1ccccc1)N1CCc2cc(OC)c(OC)cc2[C@@H]1CCc1ccc(C(F)(F)F)cc1 [almorexant] | 92.1 | 99.3 | 96.1 | 108 | 76 | 94.3 | 91.6 | 94.4 | 95.9 | 98.4 | 102 | 103 | 99.5 | 94.2 | 94.1 | 94.7 | 104 | 91.2 | 99.4 | 92.6 | 97.4 | 93 | 95.4 | 92.3 | 109 | > 10 | > 10 | > 10 | > 10 | > 10 | 0.6 | 0 | 0 | 0 | 0
COc1cc(NS(C)(=O)=O)ccc1Nc1c2ccccc2nc2ccccc12 [amsacrine] | 101 | 90.9 | 97.3 | 91.6 | 14.3 | 105 | 93.7 | 80.3 | 61.5 | 12.3 | 87.4 | 89.9 | 78.5 | 48.8 | 29 | 103 | 98.1 | 99.5 | 96.9 | 37.2 | 93 | 89.3 | 94.6 | 65.2 | 41.7 | 2.35 | 0.866 | 0.241 | 2.79 | 0.677 | 6.1 | 10.3 | 12.6 | 3.9 | 7.4
COc1cc(C(C)=O)ccc1O [apocynin] | 104 | 94.2 | 100 | 86.8 | 93.9 | 95.2 | 89.6 | 91.5 | 89.5 | 105 | 95.8 | 95.8 | 104 | 98.8 | 96.8 | 99.8 | 97.9 | 101 | 96.2 | 98.2 | 97.8 | 100 | 96.6 | 98.8 | 93.6 | > 10 | > 10 | > 10 | > 10 | > 10 | 0 | 0 | 0 | 0 | 0
CC(C)(C)NCC(O)CSc1nc(-c2ccc(C(N)=O)s2)cs1 (stereo not given) [arotinolol] | 105 | 104 | 90.6 | 106 | 107 | 102 | 98.4 | 107 | 94.1 | 99.9 | 88.7 | 96.9 | 100 | 92.8 | 104 | 96 | 100 | 99.9 | 102 | 94.6 | 103 | 98.1 | 106 | 108 | 98.4 | > 10 | > 10 | > 10 | > 10 | > 10 | 0 | 0 | 0 | 0 | 0
CO[C@H]1O[C@@H]2O[C@@]3(C)CC[C@H]4[C@H](C)CC[C@@H]([C@H]1C)[C@@]24OO3 [artemether] | 95.4 | 94.5 | 97.3 | 86.6 | 86.2 | 106 | 108 | 96.3 | 101 | 96.5 | 97.6 | 101 | 103 | 92.1 | 87.8 | 99.1 | 97.1 | 101 | 96.6 | 94.4 | 103 | 106 | 92.1 | 95.9 | 96.9 | > 10 | > 10 | > 10 | > 10 | > 10 | 0.4 | 0 | 0.4 | 0 | 0
CCOc1nc2cccc(C(=O)O)c2n1Cc1ccc(-c2ccccc2-c2noc(=O)[nH]2)cc1 [azilsartan] | 103 | 91.4 | 91.9 | 103 | 95.7 | 94.2 | 98.2 | 96 | 93 | 91.5 | 93.5 | 103 | 102 | 108 | 102 | 102 | 93.6 | 99.5 | 93.3 | 97.5 | 99 | 102 | 98.1 | 103 | 94.3 | > 10 | > 10 | > 10 | > 10 | > 10 | 0 | 0 | 0 | 0 | 0
COc1ccc(NC(=O)c2ccc(C(=N)N(C)C)cc2)c(C(=O)Nc2ccc(Cl)cn2)c1 [betrixaban] | 101 | 97.5 | 97.5 | 97.6 | 91.5 | 90.9 | 101 | 105 | 95.1 | 95.5 | 98.6 | 100 | 105 | 96.3 | 100 | 96.2 | 100 | 95.6 | 100 | 97.8 | 98.7 | 99.1 | 97.3 | 96.4 | 93.9 | > 10 | > 10 | > 10 | > 10 | > 10 | 0 | 0 | 0 | 0 | 0
